Experimental data from US10874743B2, “IRAK degraders and uses thereof” (Kymera Therapeutics, Inc., priority 2017, dated 2020).
Each block holds one compound with its values, some of them ahead of it.

Target: T1, IRAK4 (Homo sapiens, UniProt Q9NWZ3)
T1 sequence (Q9NWZ3 1-460): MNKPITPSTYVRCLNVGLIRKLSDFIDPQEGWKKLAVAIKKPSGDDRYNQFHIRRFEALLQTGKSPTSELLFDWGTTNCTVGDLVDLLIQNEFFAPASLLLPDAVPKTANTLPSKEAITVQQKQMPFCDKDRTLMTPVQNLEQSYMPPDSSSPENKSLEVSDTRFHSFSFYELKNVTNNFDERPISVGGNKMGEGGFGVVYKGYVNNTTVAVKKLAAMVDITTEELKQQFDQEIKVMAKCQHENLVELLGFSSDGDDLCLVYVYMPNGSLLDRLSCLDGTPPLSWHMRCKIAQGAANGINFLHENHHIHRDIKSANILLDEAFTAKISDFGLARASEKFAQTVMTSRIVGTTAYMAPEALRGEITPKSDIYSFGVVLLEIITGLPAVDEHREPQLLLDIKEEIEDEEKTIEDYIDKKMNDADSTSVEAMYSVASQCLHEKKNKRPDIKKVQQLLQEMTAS
Experiment: OCI-LY-10 degradation assay (western blot, % IRAK4 degraded after 4 hours)
Assay type: cell-based
Design: endogenous in cells; host or cells: OCI-LY10
Settings: OCI-LY10 cells; for OCI-LY10 % IRAK4 Degradation: IRAK4 degraded after 4 hours, western blot; for OCI-LY10 % IRAK4 Degradation (0.01 uM) / OCI-LY10 % IRAK4 Degradation (0.1 uM) / OCI-LY10 % IRAK4 Degradation (1 uM): 4 hours; for OCI-LY10 % IRAK4 Degradation (0.01 uM): 0.01 uM compound; for OCI-LY10 % IRAK4 Degradation (0.1 uM): 0.1 uM compound; for OCI-LY10 % IRAK4 Degradation (1 uM): 1 uM compound
Description: Compounds were reconstituted in DMSO to make stock solutions at concentration of 60 mM. THP-1 and OCI-LY10 cells were maintained in RPMI-1640 medium containing 10% FBS, 0.5 μM 2-ME or 20% FBS, 55 μM 2-ME, and 1% L-Glutamine respectively.
Cells were seeded into 6-well plates with 5e6 cells per well. 200 μL of diluted compounds were added to cells to the final concentration of 0.003-10 μM. After 4 or 24 hour-incubation at 37° C., cells were collected into 2 mL Eppendorf tubes and centrifuged at 1,000 rpm for 5 min. The cell pellets were washed with 1×DPBS once and resuspended in 60 μL lysis buffer. The cells were lysed on ice for 10 min, then centrifuged at 14,000 rpm for 10 min at 4° C. and the supernatants were collected for western blots. For THP-1 cells, the lysis buffer contained 40 mM pH 7.4 HEPES, 140 mM NaCl, 2.5 mM EDTA, 1% NP-40, 0.1% SDS, and protease inhibitor cocktail (Roche, Cat. No. 05892791001). For OCI-LY10 cells, RIPAbuffer (Thermo Fisher, 89900) with Halt Protease and Phosphatase Inhibitor Cocktail (Thermo Fisher, 78446) was applied.
The protein concentration of cell lysates was quantified with Pierce™ BCA Protein Assay Kit (Pierce, 23227). Albumin standards at different concentrations were prepared, involving 2,000 ug/mL, 1,500 ug/mL, 1,000 ug/mL, 750 ug/mL, 500 ug/mL, 250 ug/mL, 125 ug/mL, and 25 ug/mL. BCA working reagents were prepared by mixing BCA reagent A with reagent B in 50:1 ratio. 200 μL of the BCA working reagents were added to 25 μL of BCA standard or cell lysates in microplate, and mixed thoroughly on a plate shaker for 30 seconds. After incubation at 37° C. for 30 min, the absorbance of samples at 562 nm were measured with EnVision Plate Reader.
Protein lysates were prepared in NuPAGE™ LDS sample buffer and NuPAGE™ sample reducing agent, and incubated at 95° C. for 5 min. For western blots, 20-25 μg of total proteins were resolved in 4-12% Bis-Tris gels (Introgen, WG1403A) or 10% Bis-Tris Midi gels (Invitrogen, WG1202BOX) running with 1×MOPS SDS running buffer (Invitrogen, NP0001) or 1×MES SDS running buffer (Invitrogen, NP0002). The proteins were transferred to low fluorescence PVDF membranes using the Trans-Blot Turbo Transfer System. Membranes were then blocked in Odyssey blocking buffer at RT for 1 h followed by primary incubation at 4° C. overnight. The primary antibodies were IRAK1 rabbit monoclonal antibody (CST, #4504S, 1:500), IRAK3 rabbit polyclonal antibody (CST, #4369, 1:500), IRAK4 rabbit polyclonal antibody (CST, #4363S, 1:1,000), MyD88 rabbit monoclonal antibody (Abcam, Ab133739, 1:2,000), j3-actin mouse monoclonal antibody (Sigma, A5441, 10,000), and Gapdh mouse monoclonal antibody (Millipore, MAB374, 1:5,000). Membranes were washed three times with 1×TBST, and then incubated with IR Dye 800 CW Goat anti-rabbit (Licor, #926-32211) and IR Dye 700 CW Goat anti-mouse (Licor, #926-68070) secondary antibodies in 1:10,000 dilution at RT for 1 h. The western blot images were obtained using Odyssey Imaging System.
OCI-LY-10 results at 4 hours. The letter codes indicate the percentage of IRAK4 degraded after 4 hours: A (>50% degradation), B (>20-50% degradation) and C (<20% degradation)
OCI-LY-10 results at 4 hours. The letter codes for % IRAK4 degradation indicate the percentage of IRAK4 degraded after 4 hours across three different concentrations: A (>50% degradation), B (>20-50% degradation) and C (<20% degradation).

SMILES: O=C1CCC(N2C(=O)c3cccc(NCc4cn(CCOCCOCCNCc5ccc(-n6cc(NC(=O)c7coc(-c8ccnc(NCC9CC9)c8)n7)c(C(F)F)n6)cc5)nn4)c3C2=O)C(=O)N1 (stereo not shown) [I-340]
OCI-LY10 % IRAK4 Degradation (0.01 uM): C (<20% degradation) | OCI-LY10 % IRAK4 Degradation (0.1 uM): A (>50% degradation) | OCI-LY10 % IRAK4 Degradation (1 uM): A (>50% degradation)

SMILES: CC(OCCOCCNc1cccc2c1C(=O)N(C1CCC(=O)NC1=O)C2=O)C(F)CNC(=O)c1cnc(Nc2ccc3cnccc3n2)cc1NC1CC1 (stereo not shown) [I-84]
OCI-LY10 % IRAK4 Degradation: C (<20% degradation)

SMILES: O=C1CCC(N2C(=O)c3ccc(CCCCCN4CCC(n5cc(NC(=O)c6coc(-c7ccnc(NCC8CC8)c7)n6)c(C(F)F)n5)CC4)cc3C2=O)C(=O)N1 (stereo not shown) [I-263]
OCI-LY10 % IRAK4 Degradation (0.01 uM): C (<20% degradation) | OCI-LY10 % IRAK4 Degradation (0.1 uM): C (<20% degradation) | OCI-LY10 % IRAK4 Degradation (1 uM): C (<20% degradation)

SMILES: NC(=O)c1nn(-c2ccc(C(=O)NCC3CN(CCOCCNc4cccc5c4C(=O)N(C4CCC(=O)NC4=O)C5=O)CCO3)cc2)cc1NC(=O)c1coc(-c2ccnc(NCC(F)(F)F)c2)n1 (stereo not shown) [I-151]
OCI-LY10 % IRAK4 Degradation: A (>50% degradation)

SMILES: NC(=O)c1nn(-c2ccc(COCCOCCOCCNc3cccc4c3C(=O)N(C3CCC(=O)NC3=O)C4=O)cc2)cc1NC(=O)c1coc(-c2ccnc(NCC(F)(F)F)c2)n1 (stereo not shown) [I-92, N-[3-carbamoyl-1-[4-[2-[2-[2-[[2-(2,6-dioxo-3-piperidyl)-1,3-dioxo-isoindolin-4-yl]amino]ethoxy]ethoxy]ethoxymethyl]phenyl]pyrazol-4-yl]-2-[2-(2,2,2-trifluoroethylamino)-4-pyridyl]oxazole-4-carboxamide]
OCI-LY10 % IRAK4 Degradation: A (>50% degradation)

SMILES: CC(C)(OCCOCCOCCNc1cccc2c1C(=O)N(C1CCC(=O)NC1=O)C2=O)C(F)CNC(=O)c1cnc(-n2ncc3cc(C#N)cnc32)cc1NC1CC1 (stereo not shown) [I-59]
OCI-LY10 % IRAK4 Degradation: C (<20% degradation)

SMILES: O=C1CCC(N2C(=O)c3cccc(NCCOCCN4CCO[C@H](CNCc5ccc(-n6cc(NC(=O)c7coc(-c8ccnc(NCC9CC9)c8)n7)c(C(F)F)n6)cc5)C4)c3C2=O)C(=O)N1 (stereo partly shown) [I-329]
OCI-LY10 % IRAK4 Degradation (0.01 uM): B (>20-50% degradation) | OCI-LY10 % IRAK4 Degradation (0.1 uM): A (>50% degradation) | OCI-LY10 % IRAK4 Degradation (1 uM): A (>50% degradation)

SMILES: N#Cc1cnc2c(cnn2-c2cc(NC3CC3)c(C(=O)N[C@H]3C[C@H](COCCOCCOCCNc4cccc5c4C(=O)N(C4CCC(=O)NC4=O)C5=O)C3)cn2)c1 (stereo partly shown) [I-34]
OCI-LY10 % IRAK4 Degradation: C (<20% degradation)

SMILES: O=C1CCC(N2C(=O)c3ccc(CCCN4CCC(n5cc(NC(=O)c6coc(-c7ccnc(NCC8CC8)c7)n6)c(C(F)F)n5)CC4)cc3C2=O)C(=O)N1 (stereo not shown) [I-264]
OCI-LY10 % IRAK4 Degradation (0.01 uM): C (<20% degradation) | OCI-LY10 % IRAK4 Degradation (0.1 uM): C (<20% degradation) | OCI-LY10 % IRAK4 Degradation (1 uM): C (<20% degradation)

SMILES: CC(C)(OCCNCCOCCNc1cccc2c1C(=O)N(C1CCC(=O)NC1=O)C2=O)C(F)CNC(=O)c1cnc(-n2ncc3cc(C#N)cnc32)cc1NC1CC1 (stereo not shown) [I-129]
OCI-LY10 % IRAK4 Degradation: C (<20% degradation)

Further lines, results first:

OCI-LY10 % IRAK4 Degradation: B (>20-50% degradation)
SMILES: O=C1CCC(N2C(=O)c3ccc(CCCOCCOCCNCc4ccc(-n5cc(NC(=O)c6coc(-c7ccnc(NCC8CC8)c7)n6)c(C(F)(F)F)n5)cc4)cc3C2=O)C(=O)N1 (stereo not shown) [I-187, 2-[2-(Cyclopropylmethylamino)-4-pyridyl]-N-[1-[4-[[2-[2-[3-[2-(2,6-dioxo-3-piperidyl)-1,3-dioxo-isoindolin-5-yl]propoxy]ethoxy]ethylamino]methyl]phenyl]-3-(trifluoromethyl)pyrazol-4-yl]oxazole-4-carboxamide]

OCI-LY10 % IRAK4 Degradation (0.01 uM): C (<20% degradation) | OCI-LY10 % IRAK4 Degradation (0.1 uM): C (<20% degradation) | OCI-LY10 % IRAK4 Degradation (1 uM): C (<20% degradation)
SMILES: CN(CCOCCCc1cccc2c1C(=O)N(C1CCC(=O)NC1=O)C2=O)Cc1ccc(-n2cc(NC(=O)c3coc(-c4ccncc4)n3)c(C(F)F)n2)cc1 (stereo not shown) [I-363]

OCI-LY10 % IRAK4 Degradation (0.01 uM): B (>20-50% degradation) | OCI-LY10 % IRAK4 Degradation (0.1 uM): B (>20-50% degradation) | OCI-LY10 % IRAK4 Degradation (1 uM): A (>50% degradation)
SMILES: O=C1CCC(N2C(=O)c3cccc(CCCOCCNCc4ccc(-n5cc(NC(=O)c6coc(-c7ccnc(NCC8CC8)c7)n6)c(C(F)F)n5)cc4)c3C2=O)C(=O)N1 (stereo not shown) [I-367]

OCI-LY10 % IRAK4 Degradation (0.01 uM): B (>20-50% degradation) | OCI-LY10 % IRAK4 Degradation (0.1 uM): A (>50% degradation) | OCI-LY10 % IRAK4 Degradation (1 uM): A (>50% degradation)
SMILES: O=C1CCC(n2c(=O)oc3c(CCCOCCOCCNC(=O)c4ccc(-n5cc(NC(=O)c6coc(-c7ccnc(NCC(F)(F)F)c7)n6)c(C(F)F)n5)cc4)cccc32)C(=O)N1 (stereo not shown) [I-256]

OCI-LY10 % IRAK4 Degradation (0.01 uM): C (<20% degradation) | OCI-LY10 % IRAK4 Degradation (0.1 uM): A (>50% degradation) | OCI-LY10 % IRAK4 Degradation (1 uM): A (>50% degradation)
SMILES: O=C1CCC(N2C(=O)c3cccc(NCCOCCOCCNC(=O)c4ccc(-n5cc(NC(=O)c6coc(-c7ccnc(NCC8CC8)c7)n6)c(C(F)F)n5)cc4)c3C2=O)C(=O)N1 (stereo not shown) [I-246]

OCI-LY10 % IRAK4 Degradation (0.01 uM): B (>20-50% degradation) | OCI-LY10 % IRAK4 Degradation (0.1 uM): B (>20-50% degradation) | OCI-LY10 % IRAK4 Degradation (1 uM): B (>20-50% degradation)
SMILES: CN(CCCc1ccc2c(c1)C(=O)N(C1CCC(=O)NC1=O)C2=O)Cc1ccc(-n2cc(NC(=O)c3coc(-c4ccnc(NCC5CC5)c4)n3)c(C(F)F)n2)cc1 (stereo not shown) [I-369]

OCI-LY10 % IRAK4 Degradation (0.01 uM): C (<20% degradation) | OCI-LY10 % IRAK4 Degradation (0.1 uM): C (<20% degradation) | OCI-LY10 % IRAK4 Degradation (1 uM): A (>50% degradation)
SMILES: CN(CCNCCCc1ccc2c(c1)C(=O)N(C1CCC(=O)NC1=O)C2=O)C(=O)c1ccc(-n2cc(NC(=O)c3coc(-c4ccncc4)n3)c(C(F)F)n2)cc1 (stereo not shown) [I-378]

OCI-LY10 % IRAK4 Degradation (0.01 uM): C (<20% degradation) | OCI-LY10 % IRAK4 Degradation (0.1 uM): C (<20% degradation) | OCI-LY10 % IRAK4 Degradation (1 uM): C (<20% degradation)
SMILES: O=C1CCC(N2C(=O)c3cccc(CNCc4ccc(-n5cc(NC(=O)c6coc(-c7ccncc7)n6)c(C(F)F)n5)cc4)c3C2=O)C(=O)N1 (stereo not shown) [I-359]
